Where a chain is given by its changes, count along the chain named. Each block holds one molecule with its values, some of them ahead of it.
How the values were obtained:
AR [1] = test: Mammalian two-hybrid assay with CAT reporter in DU145 cells; type: cell-based, human; conditions: DU145; 10 nM DHT, or E2 or HF
Description: The mammalian two-hybrid system employed was essentially the protocol of Clontech (California), with the following modifications. […] The hinge and LBD of wtAR were then inserted into pGAL0. Similarly, the VP16 activation domain was fused to pCMX under the control of a CMV promoter, and designated pCMX-VP16 (provided by Dr. R. M. Evan).

wtAR = biological target: T1, wtAR (Homo sapiens, UniProt P10275); test: AR transactivation, transient transfection with MMTV-CAT reporter in DU145 cells; conditions: for AR transcriptional activity induction: 10 nM E2 or 1 μM HF
T1 sequence (P10275 1-920): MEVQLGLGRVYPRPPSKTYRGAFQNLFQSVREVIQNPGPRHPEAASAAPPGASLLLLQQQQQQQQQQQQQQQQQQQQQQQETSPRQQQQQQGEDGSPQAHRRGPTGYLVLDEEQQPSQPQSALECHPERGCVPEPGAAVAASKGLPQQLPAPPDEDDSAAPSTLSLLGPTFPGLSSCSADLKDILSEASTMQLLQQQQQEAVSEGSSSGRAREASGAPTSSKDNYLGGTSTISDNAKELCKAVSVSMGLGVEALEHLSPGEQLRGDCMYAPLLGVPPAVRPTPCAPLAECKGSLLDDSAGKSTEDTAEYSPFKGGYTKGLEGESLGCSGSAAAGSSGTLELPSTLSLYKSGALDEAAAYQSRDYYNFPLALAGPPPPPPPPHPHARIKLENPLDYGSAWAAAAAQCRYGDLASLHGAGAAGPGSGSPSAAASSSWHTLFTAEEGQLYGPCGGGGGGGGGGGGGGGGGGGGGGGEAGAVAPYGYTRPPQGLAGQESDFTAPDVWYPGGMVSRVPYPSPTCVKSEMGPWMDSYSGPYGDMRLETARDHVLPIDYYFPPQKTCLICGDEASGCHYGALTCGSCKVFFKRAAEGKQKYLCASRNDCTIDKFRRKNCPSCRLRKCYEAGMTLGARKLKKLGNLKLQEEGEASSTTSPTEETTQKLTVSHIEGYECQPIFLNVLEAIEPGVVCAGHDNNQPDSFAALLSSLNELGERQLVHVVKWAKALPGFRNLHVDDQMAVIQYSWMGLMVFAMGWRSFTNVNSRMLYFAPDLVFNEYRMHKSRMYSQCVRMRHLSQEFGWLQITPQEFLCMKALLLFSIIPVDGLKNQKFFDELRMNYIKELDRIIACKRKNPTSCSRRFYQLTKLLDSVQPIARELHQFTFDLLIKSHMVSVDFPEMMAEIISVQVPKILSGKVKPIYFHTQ

mARe708k [2] = biological target: T2, mARe708k (Homo sapiens, UniProt P10275, E710K); test: AR transactivation, transient transfection CAT reporter assay, mutant AR; type: cell-based
T2 construct: expressed in transfected cells; host or cells: DU145
T2 sequence (P10275 1-920 E710K): T1 sequence (P10275 1-920) with E710K

mARe708k [3] = biological target: T3, mARe708k (Homo sapiens, UniProt P10275); test: as above; type: cell-based; conditions: mARe708k cotransfected with Rb and/or ARA70; 10 nM E2 or 1 μM HF
T3 construct: expressed in transfected cells; host or cells: DU145
T3 sequence (P10275 1-920 E710K): T1 sequence (P10275 1-920) with E710K

mARt877s = test: as above; type: cell-based, human
AR [4] = biological target: T4, AR (Homo sapiens, UniProt P10275); test: AR-activated transcription (CAT) in transfected H1299 cells; type: cell-based; set-up: expressed in transfected cells; host or cells: DU145 (A1), NCI H1299 (A7), PC3 (A8); conditions: H1299 cells with endogenous ARA54
T4 sequence (P10275 1-920): T1 sequence (P10275 1-920)
Description: Since the C-terminal region of ARA54 (a.a. 361–471 of SEQ ID NO:2) isolated from prostate cDNA library has shown to be sufficient to interact with AR in yeast two-hybrid assays, we further investigated whether it could squelch the effect of ARA54 on AR-activated transcription in H1299 cells, which contain endogenous ARA54. The C-terminal region of ARA54 inhibits AR-mediated transcription by up to 70%; coexpression of exogenous full-length ARA54 reverses this squelching effect in a dose-dependent manner.
Human small lung carcinoma H1299 cell line, which has no endogenous AR protein, were transfected with AR and ARA24/Ran. Because ARA24/Ran is one of the most abundant and ubiquitously expressed proteins in various cells, both sense and antisense ARA24/Ran mammalian expression plasmids were tested.

response of wtAR transactivation to ligand (wtAR; E2 10^-9-10^-7 M or HF 10^-7-10^-5 M, in the presence or absence of ARA54): responded only marginally
AR transcriptional activity induction (wtAR; wild type AR cotransfected with Rb and ARA70): 12 fold
AR transcriptional activity induction (wtAR; wild type AR cotransfected with Rb or ARA70): 3–4 fold
response of wtAR transcriptional activity to ligand (wtAR; without ARA55, only at higher concentrations (10^-7 M for E2, 10^-5 M for HF)): responded marginally
agonistic activity toward ARe708k (mARe708k [2]): no agonistic activity
AR transcriptional activity induction (mARe708k [3]): almost no induction
Molecule: CC(C)(O)C(=O)Nc1ccc([N+](=O)[O-])c(C(F)(F)F)c1 [HF, hydroxyflutamide, reference compound]
CAT activity with GAL0AR and VP16-ARA55 cotransfected (AR [1]): not induced
response of Art877a transactivation to ligand (mARt877s; absence of ARA54, E2 10^-9-10^-7 M, HF 10^-7-10^-5 M): responded
response of LNCaP mAR to ligand compared to wtAR (mARt877s; compared to wtAR): responded much better

inhibition of AR-mediated transcription (AR [4]): up to 70%
B1: C-terminal region of ARA54: a.a. 361–471 of ARA54, dominant negative inhibitor of AR-mediated transcription (protein)
chain: ANFNQSGNIADSSLSFTFTNSSNGPNLITTQTNSQALSQPIASSNVHDNFMNNEITASKIDDGNNSKPLSPGWTDQTAYNAFGITTGMFNTTTMDDVYNYLFDDEDTPPNPKKERNEYLQADEANKRLLDQRYGKRVIQKALEEMESKEWLEKNSKSCPCCGTPIEKLDGCNKMTCTGCMQYFCWICMGSLSRANPYKHFNDPGSPCFNRLFYAVDVDDDIWEDE
